Assays:
M9 ENL1 cell line = experiment: Anti-leukemic activity, Annexin V/7-AAD flow cytometry; format: cell-based; details: 24 h of drug exposure; read-out: M9ENL1 (EC50)
Experimental: The newly synthesized triazole derivatives of melampomagnolide B were screened for anti-leukemic activity against M9 ENL1 and primary AML cell lines; the latter were obtained with informed consent from human patients. Evaluations were performed after 24 h of drug exposure using flow cytometric analysis by labeling with Annexin V and 7-aminoactinomycin D (7-AAD) to delineate apoptotic cell populations. In all experiments PTL was included as a reference control.

M14 = experiment: NCI 60 growth inhibition; format: cell-based, human; details: M14, Melanoma, Table 3
Experimental: (§1) The above triazole derivatives of melampomagnolide B were evaluated for growth inhibitory properties against an NCI panel of 60 human cancer cell lines derived from nine human cancer cell types, grouped into disease sub-panels that represent leukemia, lung, colon, central nervous system (CNS), melanoma, renal, ovary, breast, and prostate cancer cells. Growth inhibitory (GI50) effects were measured as a function of the variation of optical density as a percentage of control.

CCRF-CEM = experiment: NCI 60 growth inhibition; format: cell-based, human; details: Leukemia, Table 3
Experimental: as §1

CAKI-1 = experiment: NCI 60 growth inhibition; format: cell-based, human; details: CAKI-1, Renal Cancer, Table 3
Experimental: as §1

MDA-MB-468 = experiment: NCI 60 growth inhibition; format: cell-based, human; details: MDA-MB-468, Breast Cancer, Table 3
Experimental: as §1

LOX IMVI = experiment: NCI 60 growth inhibition; format: cell-based, human; details: Melanoma, Table 3
Experimental: as §1

SK-MEL-28 = experiment: NCI 60 growth inhibition; format: cell-based, human; details: SK-MEL-28, Melanoma, Table 3
Experimental: as §1

PC-3 = experiment: NCI 60 growth inhibition; format: cell-based, human; details: PC-3, Prostate Cancer, Table 3
Experimental: as §1

MALME-3M = experiment: NCI 60 growth inhibition; format: cell-based, human; details: Melanoma, Table 3
Experimental: as §1

ACHN = experiment: NCI 60 growth inhibition; format: cell-based, human; details: Renal Cancer, Table 3
Experimental: as §1

HL-60(TB) = experiment: NCI 60 growth inhibition; format: cell-based, human; details: HL-60 (TB), Leukemia, Table 3
Experimental: as §1

IGROV1 = experiment: NCI 60 growth inhibition; format: cell-based, human; details: IGROV1, Ovarian Cancer, Table 3
Experimental: as §1

BT-549 = experiment: NCI 60 growth inhibition; format: cell-based, human; details: BT-549, Breast Cancer, Table 3
Experimental: as §1

T-47D = experiment: NCI 60 growth inhibition; format: cell-based, human; details: Breast Cancer, Table 3
Experimental: as §1

HCC-2998 = experiment: NCI 60 growth inhibition; format: cell-based, human; details: HCC-2998, Colon Cancer, Table 3
Experimental: as §1

HCT-116 = experiment: NCI 60 growth inhibition; format: cell-based, human; details: HCT-116, Colon Cancer, Table 3
Experimental: as §1

NCI-H522 = experiment: NCI 60 growth inhibition; format: cell-based, human; details: NCI-H522, Non-Small Cell Lung Cancer, Table 3
Experimental: as §1

MOLT-4 = experiment: NCI 60 growth inhibition; format: cell-based, human; details: MOLT-4, Leukemia, Table 3
Experimental: as §1

NCI-H23 = experiment: NCI 60 growth inhibition; format: cell-based, human; details: NCI-H23, Non-Small Cell Lung Cancer, Table 3
Experimental: as §1

OVCAR-5 = experiment: NCI 60 growth inhibition; format: cell-based, human; details: OVCAR-5, Ovarian Cancer, Table 3
Experimental: as §1

NCI-H322M = experiment: NCI 60 growth inhibition; format: cell-based, human; details: Non-Small Cell Lung Cancer, Table 3
Experimental: as §1

MDA-MB-435 = experiment: NCI 60 growth inhibition; format: cell-based, human; details: MDA-MB-435, Melanoma, Table 3
Experimental: as §1

A549/ATCC = experiment: NCI 60 growth inhibition; format: cell-based, human; details: Non-Small Cell Lung Cancer, Table 3
Experimental: as §1

SK-MEL-5 = experiment: NCI 60 growth inhibition; format: cell-based, human; details: SK-MEL-5, Melanoma, Table 3
Experimental: as §1

SF-539 = experiment: NCI 60 growth inhibition; format: cell-based, human; details: SF-539, CNS Cancer, Table 3
Experimental: as §1

COLO 205 = experiment: NCI 60 growth inhibition; format: cell-based, human; details: COLO 205, Colon Cancer, Table 3
Experimental: as §1

SNB-19 = experiment: NCI 60 growth inhibition; format: cell-based, human; details: SNB-19, CNS Cancer, Table 3
Experimental: as §1

SN12C = experiment: NCI 60 growth inhibition; format: cell-based, human; details: Renal Cancer, Table 3
Experimental: as §1

MCF7 = experiment: NCI 60 growth inhibition; format: cell-based, human; details: MCF7, Breast Cancer, Table 3
Experimental: as §1

HT29 = experiment: NCI 60 growth inhibition; format: cell-based, human; details: HT29, Colon Cancer, Table 3
Experimental: as §1

SK-MEL-2 = experiment: NCI 60 growth inhibition; format: cell-based, human; details: SK-MEL-2, Melanoma, Table 3
Experimental: as §1

K-562 = experiment: NCI 60 growth inhibition; format: cell-based, human; details: K-562, Leukemia, Table 3
Experimental: as §1

RXF 393 = experiment: NCI 60 growth inhibition; format: cell-based, human; details: RXF 393, Renal Cancer, Table 3
Experimental: as §1

SW-620 = experiment: NCI 60 growth inhibition; format: cell-based, human; details: SW-620, Colon Cancer, Table 3
Experimental: as §1

Row | SMILES | EC50 (M9 ENL1 cell line) [µM] | GI50 (M14) [µM] | GI50 (CCRF-CEM) [µM] | GI50 (CAKI-1) [µM] | GI50 (MDA-MB-468) [µM] | GI50 (LOX IMVI) [µM] | GI50 (SK-MEL-28) [µM] | GI50 (PC-3) [µM] | GI50 (MALME-3M) [µM] | GI50 (ACHN) [µM] | GI50 (HL-60(TB)) [µM] | GI50 (IGROV1) [µM] | GI50 (BT-549) [µM] | GI50 (T-47D) [µM] | GI50 (HCC-2998) [µM] | GI50 (HCT-116) [µM] | GI50 (NCI-H522) [µM] | GI50 (MOLT-4) [µM] | GI50 (NCI-H23) [µM] | GI50 (OVCAR-5) [µM] | further results
1 | C=C1C(=O)O[C@H]2[C@H]1CC/C(Cn1cc(-c3ccsc3)nn1)=C\CC[C@@]1(C)O[C@@H]21 [JVM 4-53] | 2.7 | 1.93 | 1.63 | 1.06 | 1.28 | 1.28 | 1.81 | 4.21 | 1.61 | 1.32 | 1.91 | 1.92 | 1.8 | 2.03 | 1.84 | 1.16 | 1.39 | 2.59 | 1.82 | 2.29 | GI50 (NCI-H322M): 10.5 µM; GI50 (MDA-MB-435): 1.85 µM; GI50 (A549/ATCC): 8.61 µM; GI50 (SK-MEL-5): 1.83 µM; GI50 (SF-539): 1.8 µM; GI50 (COLO 205): 1.45 µM; GI50 (SNB-19): 9.49 µM; GI50 (SN12C): 2.45 µM; GI50 (MCF7): 1.68 µM; GI50 (HT29): 1.66 µM; GI50 (SK-MEL-2): 2.27 µM; GI50 (K-562): 2.51 µM; GI50 (RXF 393): 1.07 µM; GI50 (SW-620): 1.32 µM
2 | C=C1C(=O)O[C@H]2[C@H]1CC/C(Cn1cc(-c3ccccc3C(F)(F)F)nn1)=C\CC[C@@]1(C)O[C@@H]21 [JVM 4-59] | 3.9 | 2.15 | 0.76 | 1.31 | 1.14 | 1.11 | 1.75 | 4.32 | 1.7 | 1.45 | 2.58 | 1.81 | 2.4 | 1.7 | 1.85 | 1.26 | 1.38 | 3.03 | 1.75 | 2.46 | GI50 (NCI-H322M): 10.8 µM; GI50 (MDA-MB-435): 2.18 µM; GI50 (A549/ATCC): 7.23 µM; GI50 (SK-MEL-5): 1.72 µM; GI50 (SF-539): 1.76 µM; GI50 (COLO 205): 1.98 µM; GI50 (SNB-19): 10.8 µM; GI50 (SN12C): 2.47 µM; GI50 (MCF7): 1.33 µM; GI50 (HT29): 1.79 µM; GI50 (SK-MEL-2): 2.45 µM; GI50 (K-562): 2.4 µM; GI50 (RXF 393): 1.07 µM; GI50 (SW-620): 1.24 µM
